Test results from patent US7034040B2, “Fluorinated heterocyclic compounds and methods of synthesis” (R.T. Alamo Ventures I, priority 2002, dated 2006).

What was measured:
[1] = tested on: Protein Serine/Threonine Kinase PKC, Non-Selective; test: Protein serine/threonine kinase PKC, non-selective, enzyme assay; type: biochemical; settings: rat brain enzyme
Excerpt: In this example, monofluoroflosequinan was subjected to biochemical enzyme assays and radioligand binding assays to determine its percent inhibition of a variety of enzyme activities and its percent inhibition of specific binding. The methods used have been adapted from those described in the scientific literature, see Hidaka and Asano “Human blood platelet 3′:5′ cyclic nucleotide phosphodiesterase. Isolation of low-Km and high Km phosphodiesterase.” Biochem. Biophys. Acta 429:485 (1976); Nicholoson et al. “Differential modulation of tissue function and therapeutic potential of selective inhibitors of cyclic nucleotide phosphodiesterase isoenzymes” Trends Pharmacol. Sci. 12:19 (1991); Cortijo et al. “Investigation into the role of phosphodiesterase IV in bronchorelaxation, including studies with hyman bronchus.” Br. J Pharmacol. 108:562 (1993); Baehr et al. “Isolation and characterization of cGMP phosphodiesterase from bovine rod outer segments.” J. Biol. Chem. 254:11669 (1979), Gillespie and Beavo “Inhibition and stimulation of photoreceptor phosphodiesterase by dipyridamole and M&B 22,948” Molecular Pharm. 36:773 (1989); Tamaoki and Nakano “Potent and specific inhibitors of protein kinase C of microbial origin” Biotechnology 8:732 (1990); Wilkinson et al. “Isoenzyme specificity of bisindolymaleimides, selective inhibitors of protein kinase C” Biochem. J 294:335 (1993); Tamaki et al. “Staurosporine, a potent inhibitor of phospholipid/Ca++dependent protein kinase” Biochem. Biophys. Res. Comm, 135:397 (1986); Schoemaker and Langer “[3H]Diltiazem binding to calcium channel antagonist recognition sites in rate cerebral cortex” Eur. J Pharmacol. 111:273 (1985); Ehlert et al. “The binding of [3H]nitrendipine to receptors for calcium channel antagonists in the heart, cerebral cortex and ileum of rats.” Life Sci. 30:2191 (1982); Gould et al. “[3H]nitrendipine-labeled calcium channels discriminate inorganic calcium agonists and antagonists” Proc. Natl. Acad. Sci. USA 79:3656 (1982); Reynolds et al. “(−)−[3H]Desmethoxyverapamil labels multiple calcium channel modulator receptors in brain and skeletal muscle membranes: Differentiation by temperature and dihydropyridines” J Pharmacol. Exp. Ther. 237:731 (1986) and Worley et al. “Characterization of inositol triphosphate receptor binding in brain. Regulation by pH and calcium” J Biol. Chem. 262:12132 (1987). A brief summary of the conditions for each assay is provided below:
Protein Serine/Threonine Kinase PKC, Non-Selective: The enzyme was obtained from rat brain and the substrate was 370 μg/ml histone. The reaction was pre-incubated 5 min at 25° C., followed by a 15 min incubation at 25° C. in a buffer of 20 mM Tris-HCl, 10 mM MgCl2.Ho and 0.1 mM CaCl2.2HO, pH 7.4. [^32P]histone was quantitated.

PDE1 = PDE1 enzyme inhibition assay; type: biochemical; settings: 1000 μM compound, 1% DMSO vehicle, bovine heart enzyme
Excerpt: (§1) In this example, monofluoroflosequinan was subjected to biochemical enzyme assays and radioligand binding assays to determine its percent inhibition of a variety of enzyme activities and its percent inhibition of specific binding. The methods used have been adapted from those described in the scientific literature, see Hidaka and Asano “Human blood platelet 3′:5′ cyclic nucleotide phosphodiesterase. Isolation of low-Km and high Km phosphodiesterase.” Biochem. Biophys. Acta 429:485 (1976); Nicholoson et al. “Differential modulation of tissue function and therapeutic potential of selective inhibitors of cyclic nucleotide phosphodiesterase isoenzymes” Trends Pharmacol. Sci. 12:19 (1991); Cortijo et al. “Investigation into the role of phosphodiesterase IV in bronchorelaxation, including studies with hyman bronchus.” Br. J Pharmacol. 108:562 (1993); Baehr et al. “Isolation and characterization of cGMP phosphodiesterase from bovine rod outer segments.” J. Biol. Chem. 254:11669 (1979), Gillespie and Beavo “Inhibition and stimulation of photoreceptor phosphodiesterase by dipyridamole and M&B 22,948” Molecular Pharm. […]
PDE1: PDE1 partially purified from bovine heart was used. […] Unhydrolyzed cAMP was bound to AGI-X2 resin, and the remaining [^3H]adenosine in the aqueous phase was quantitated by scintillation counting.

PDE4 = PDE4 enzyme inhibition assay; type: biochemical; settings: 1000 μM compound, 1% DMSO vehicle, human U-937 cell enzyme
Excerpt: as §1
PDE4: PDE4 partially purified from human U-937 pronocytic cells was used. […] Unhydrolyzed cAMP was bound to AGI-X2 resin, and the remaining [^3H]adenosine in the aqueous phase was quantitated by scintillation counting.

PDE3 = biological target: T1, PDE3 (Homo sapiens, UniProt Q14432); test: PDE3 enzyme inhibition assay; type: biochemical; settings: 1000 μM compound, 1% DMSO vehicle, human platelet enzyme
T1 construct: PDE3 partially purified from human platelets was used; from tissue; host or cells: human platelets
Excerpt: as §1
PDE3: PDE3 partially purified from human platelets was used. […] Unhydrolyzed cAMP was bound to AGI-X2 resin, and the remaining [^3H]adenosine in the aqueous phase was quantitated by scintillation counting.

[2] = biological target: Calcium Channel Type L, Dihydropyridine; settings: Wistar rat cerebral cortex, 90 min at 25° C.; read-out: Kd (historical value of the radioligand); cited from earlier work

T1 sequence (Q14432 whole entry): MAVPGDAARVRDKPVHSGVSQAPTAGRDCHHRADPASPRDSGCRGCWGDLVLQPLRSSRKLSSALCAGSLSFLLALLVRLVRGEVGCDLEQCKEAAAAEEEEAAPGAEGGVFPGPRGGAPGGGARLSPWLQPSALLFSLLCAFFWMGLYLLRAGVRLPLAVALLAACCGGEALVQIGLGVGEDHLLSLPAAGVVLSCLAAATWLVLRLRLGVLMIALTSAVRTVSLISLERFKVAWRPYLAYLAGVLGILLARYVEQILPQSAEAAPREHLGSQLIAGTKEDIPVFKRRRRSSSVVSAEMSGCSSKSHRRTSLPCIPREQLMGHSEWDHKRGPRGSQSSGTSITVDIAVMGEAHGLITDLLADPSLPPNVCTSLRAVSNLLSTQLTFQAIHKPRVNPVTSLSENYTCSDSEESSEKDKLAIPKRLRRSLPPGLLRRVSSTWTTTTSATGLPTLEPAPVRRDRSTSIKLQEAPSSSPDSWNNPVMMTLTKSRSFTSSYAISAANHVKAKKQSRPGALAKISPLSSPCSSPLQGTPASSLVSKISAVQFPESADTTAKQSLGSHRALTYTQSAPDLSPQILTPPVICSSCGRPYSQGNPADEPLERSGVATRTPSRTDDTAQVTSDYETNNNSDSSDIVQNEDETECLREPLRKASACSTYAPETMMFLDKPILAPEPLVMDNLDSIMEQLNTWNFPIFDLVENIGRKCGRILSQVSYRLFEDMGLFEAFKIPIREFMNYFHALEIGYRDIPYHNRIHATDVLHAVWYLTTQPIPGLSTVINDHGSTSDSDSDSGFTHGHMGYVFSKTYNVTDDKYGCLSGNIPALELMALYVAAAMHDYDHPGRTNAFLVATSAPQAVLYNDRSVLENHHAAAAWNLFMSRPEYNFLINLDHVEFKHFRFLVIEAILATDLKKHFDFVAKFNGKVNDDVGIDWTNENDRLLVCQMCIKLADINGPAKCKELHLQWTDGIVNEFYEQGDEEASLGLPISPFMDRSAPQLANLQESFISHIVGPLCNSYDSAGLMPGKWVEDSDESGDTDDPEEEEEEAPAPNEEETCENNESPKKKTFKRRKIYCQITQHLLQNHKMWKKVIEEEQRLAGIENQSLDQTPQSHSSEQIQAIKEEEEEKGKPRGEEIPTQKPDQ

In the case of Cn1cc([S+]([O-])CF)c(=O)c2ccc(F)cc21 (racemic) [monofluoroflosequinan, 7-fluoro-3-fluoromethylsulfinyl-1-methyl-4-quinolone], the “inhibition of protein serine/threonine kinase, PKC, non-selective” value ([1]; 100 μM compound) is reported as “Significant inhibition”, the “inhibition of protein serine/threonine kinase, PKC, non-selective” value ([1]; 300 μM compound) is reported as “Significant inhibition” and the “inhibition of protein serine/threonine kinase, PKC, non-selective” value ([1]; 1000 μM compound, 1% DMSO vehicle) is reported as “Significant inhibition”.

In the case of Cn1cc(S(=O)(=O)C(F)F)c(=O)c2ccc(F)cc21 [3-difluoromethylsulfonyl-7-fluoro-1-methyl-4-quinolone], the “inhibition of PDE1” value (PDE1) is reported as “greater than 50%”, the “inhibition of PDE4” value (PDE4) is reported as “greater than 50%” and the inhibition at 1000 µM (PDE3) is reported as over 50%.

In the case of CCOC(=O)C1=C(C)NC(C)=C(C(=O)OC)C1c1cccc([N+](=O)[O-])c1 (stereo not shown) [^3H Nitrendipine], the Kd [2] is listed as 0.18 nM.

In the case of Cn1cc([S+]([O-])C(F)F)c(=O)c2ccc(F)cc21 (stereo not shown) [difluoroflosequinan, 3-difluoromethylsulfinyl-7-fluoro-1-methyl-4-quinolone], the “inhibition of PDE1” value (PDE1) is reported as “greater than 50%”, the “inhibition of protein serine/threonine kinase, PKC, non-selective” value ([1]; 1000 μM compound) is reported as “greater than 50%” and the inhibition at 1000 µM (PDE3) is reported as over 50%.
